system: recombinant NL4-3 virus (Renilla luciferase in nef, Gag P373S; NLRluc) in MT-2 cells; experiment: whole plant or invertebrate; assay type: cell-based, HIV; details: Renilla, NL43, luciferase activity in cells infected for 4-5 days with NLRluc recombinants, serial dilutions of inhibitor; class symbols (key in Table 1); read-out: EC50
Outline: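 MT-2 cells in RPMI 1640 with 10% heat-inactivated FBS were infected with the reporter virus, made by transfecting the proviral clone into 293T cells, and cultured 4-5 days with serial inhibitor dilutions. Antiviral activity was quantified from Renilla luciferase activity measured in lysed cells.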

Row | SMILES | EC50 [nM]
1 | C=C(C)[C@@H]1CC[C@]2(NC(=O)CN3C(=O)OC[C@@H]3c3ccccc3)CC[C@]3(C)[C@H](CC[C@@H]4[C@@]5(C)CC=C(c6ccc(C(=O)O)cc6)C(C)(C)[C@@H]5CC[C@]43C)[C@@H]12 [Example 107, 4-((1R,3aS,5aR,5bR,7aR,11aS,11bR,13aR,13bR)-5a,5b,8,8,11a-pentamethyl-3a-(2-((S)-2-oxo-4-phenyloxazolidin-3-yl)acetamido)-1-(prop-1-en-2-yl)-2,3,3a,4,5,5a,5b,6,7,7a,8,11,11a,11b,12,13,13a,13b-octadecahydro-1H-cyclopenta[a]chrysen-9-yl)benzoic acid] | < 100
2 | C=C(C)[C@@H]1CC[C@]2(NC(=O)CN[C@H](CO)c3ccccc3)CC[C@]3(C)[C@H](CC[C@@H]4[C@@]5(C)CC=C(c6ccc(C(=O)O)cc6)C(C)(C)[C@@H]5CC[C@]43C)[C@@H]12 [Example 108, 4-((1R,3aS,5aR,5bR,7aR,11aS,11bR,13aR,13bR)-3a-(2-((S)-2-hydroxy-1-phenylethylamino)acetamido)-5a,5b,8,8,11a-pentamethyl-1-(prop-1-en-2-yl)-2,3,3a,4,5,5a,5b,6,7,7a,8,11,11a,11b,12,13,13a,13b-octadecahydro-1H-cyclopenta[a]chrysen-9-yl)benzoic acid] | < 100
3 | C=C(C)[C@@H]1CC[C@]2(NC(=O)CN3CC[C@H](NC(=O)OC(C)(C)C)C3=O)CC[C@]3(C)[C@H](CC[C@@H]4[C@@]5(C)CC=C(c6ccc(C(=O)O)cc6)C(C)(C)[C@@H]5CC[C@]43C)[C@@H]12 [Example 109, 4-((1R,3aS,5aR,5bR,7aR,11aS,11bR,13aR,13bR)-3a-(2-((S)-3-(tert-butoxycarbonylamino)-2-oxopyrrolidin-1-yl)acetamido)-5a,5b,8,8,11a-pentamethyl-1-(prop-1-en-2-yl)-2,3,3a,4,5,5a,5b,6,7,7a,8,11,11a,11b,12,13,13a,13b-octadecahydro-1H-cyclopenta[a]chrysen-9-yl)benzoic acid] | < 100
4 | C=C(C)[C@@H]1CC[C@]2(NC(=O)C(NC3CCS(=O)(=O)C3)C(C)C)CC[C@]3(C)[C@H](CC[C@@H]4[C@@]5(C)CC=C(c6ccc(C(=O)O)cc6)C(C)(C)[C@@H]5CC[C@]43C)[C@@H]12 (stereo partly drawn) [Example 112, benzoic acid, 4-[(1R,3aS,5aR,5bR,7aR,11aS,11bR,13aR,13bR)-2,3,3a,4,5,5a,5b,6,7,7a,8,11,11a,11b,12,13,13a,13b-octadecahydro-5a,5b,8,8,11a-pentamethyl-1-(1-methylethenyl)-3a-[[3-methyl-1-oxo-2-[(tetrahydro-1,1-dioxido-3-thienyl)amino]butyl]amino]-1H-cyclopenta[a]chrysen-9-yl]] | < 100
5 | C=C(C)[C@@H]1CC[C@]2(NC(=O)C3CCCN3S(C)(=O)=O)CC[C@]3(C)[C@H](CC[C@@H]4[C@@]5(C)CC=C(c6ccc(C(=O)O)cc6)C(C)(C)[C@@H]5CC[C@]43C)[C@@H]12 (stereo partly drawn) [Example 113, 4-((1R,3aS,5aR,5bR,7aR,11aS,11bR,13aR,13bR)-5a,5b,8,8,11a-pentamethyl-3a-(1-(methylsulfonyl)pyrrolidine-2-carboxamido)-1-(prop-1-en-2-yl)-2,3,3a,4,5,5a,5b,6,7,7a,8,11,11a,11b,12,13,13a,13b-octadecahydro-1H-cyclopenta[a]chrysen-9-yl)benzoic acid] | < 100
6 | C=C(C)[C@@H]1CC[C@]2(NC(=O)[C@@H]3CC(F)(F)CN3C(=O)OC(C)(C)C)CC[C@]3(C)[C@H](CC[C@@H]4[C@@]5(C)CC=C(c6ccc(C(=O)O)cc6)C(C)(C)[C@@H]5CC[C@]43C)[C@@H]12 [Example 114, 4-((1R,3aS,5aR,5bR,7aR,11aS,11bR,13aR,13bR)-3a-((S)-1-(tert-butoxycarbonyl)-4,4-difluoropyrrolidine-2-carboxamido)-5a,5b,8,8,11a-pentamethyl-1-(prop-1-en-2-yl)-2,3,3a,4,5,5a,5b,6,7,7a,8,11,11a,11b,12,13,13a,13b-octadecahydro-1H-cyclopenta[a]chrysen-9-yl)benzoic acid] | < 100
7 | C=C(C)[C@@H]1CC[C@]2(NC(=O)CNS(=O)(=O)c3cccs3)CC[C@]3(C)[C@H](CC[C@@H]4[C@@]5(C)CC=C(c6ccc(C(=O)O)cc6)C(C)(C)[C@@H]5CC[C@]43C)[C@@H]12 [Example 115, 4-((1R,3aS,5aR,5bR,7aR,11aS,11bR,13aR,13bR)-5a,5b,8,8,11a-pentamethyl-1-(prop-1-en-2-yl)-3a-(2-(thiophene-2-sulfonamido)acetamido)-2,3,3a,4,5,5a,5b,6,7,7a,8,11,11a,11b,12,13,13a,13b-octadecahydro-1H-cyclopenta[a]chrysen-9-yl)benzoic acid] | < 100
8 | C=C(C)[C@@H]1CC[C@]2(NC(=O)C(CC)NC3CCS(=O)(=O)C3)CC[C@]3(C)[C@H](CC[C@@H]4[C@@]5(C)CC=C(c6ccc(C(=O)O)cc6)C(C)(C)[C@@H]5CC[C@]43C)[C@@H]12 (stereo partly drawn) [Example 116, benzoic acid, 4-[(1R,3aS,5aR,5bR,7aR,11aS,11bR,13aR,13bR)-2,3,3a,4,5,5a,5b,6,7,7a,8,11,11a,11b,12,13,13a,13b-octadecahydro-5a,5b,8,8,11a-pentamethyl-1-(1-methylethenyl)-3a-[[1-oxo-2-[(tetrahydro-1,1-dioxido-3-thienyl)amino]butyl]amino]-1H-cyclopenta[a]chrysen-9-yl]] | < 100
9 | C=C(C)[C@@H]1CC[C@]2(NC(=O)CN3CCCCS3(=O)=O)CC[C@]3(C)[C@H](CC[C@@H]4[C@@]5(C)CC=C(c6ccc(C(=O)O)cc6)C(C)(C)[C@@H]5CC[C@]43C)[C@@H]12 [Example 117, benzoic acid, 4-[(1R,3aS,5aR,5bR,7aR,11aS,11bR,13aR,13bR)-2,3,3a,4,5,5a,5b,6,7,7a,8,11,11a,11b,12,13,13a,13b-octadecahydro-5a,5b,8,8,11a-pentamethyl-1-(1-methylethenyl)-3a-[[(tetrahydro-1,1-dioxido-2H-1,2-thiazin-2-yl)acetyl]amino]-1H-cyclopenta[a]chrysen-9-yl]] | < 100
10 | C=C(C)[C@@H]1CC[C@]2(NC(=O)CN3CCC(F)(F)CC3)CC[C@]3(C)[C@H](CC[C@@H]4[C@@]5(C)CC=C(c6ccc(C(=O)O)cc6)C(C)(C)[C@@H]5CC[C@]43C)[C@@H]12 [Example 118, 4-((1R,3aS,5aR,5bR,7aR,11aS,11bR,13aR,13bR)-3a-(2-(4,4-difluoropiperidin-1-yl)acetamido)-5a,5b,8,8,11a-pentamethyl-1-(prop-1-en-2-yl)-2,3,3a,4,5,5a,5b,6,7,7a,8,11,11a,11b,12,13,13a,13b-octadecahydro-1H-cyclopenta[a]chrysen-9-yl)benzoic acid] | < 100
11 | C=C(C)[C@@H]1CC[C@]2(NC(=O)CN3CCC(F)(F)C3)CC[C@]3(C)[C@H](CC[C@@H]4[C@@]5(C)CC=C(c6ccc(C(=O)O)cc6)C(C)(C)[C@@H]5CC[C@]43C)[C@@H]12 [Example 119, 4-((1R,3aS,5aR,5bR,7aR,11aS,11bR,13aR,13bR)-3a-(2-(3,3-difluoropyrrolidin-1-yl)acetamido)-5a,5b,8,8,11a-pentamethyl-1-(prop-1-en-2-yl)-2,3,3a,4,5,5a,5b,6,7,7a,8,11,11a,11b,12,13,13a,13b-octadecahydro-1H-cyclopenta[a]chrysen-9-yl)benzoic acid] | < 100
12 | C=C(C)[C@@H]1CC[C@]2(NC(=O)Cc3cccnc3)CC[C@]3(C)[C@H](CC[C@@H]4[C@@]5(C)CC=C(c6ccc(C(=O)O)cc6)C(C)(C)[C@@H]5CC[C@]43C)[C@@H]12 [Example 120, benzoic acid, 4-[(1R,3aS,5aR,5bR,7aR,11aS,11bR,13aR,13bR)-2,3,3a,4,5,5a,5b,6,7,7a,8,11,11a,11b,12,13,13a,13b-octadecahydro-5a,5b,8,8,11a-pentamethyl-1-(1-methylethenyl)-3a-[(3-pyridinylacetyl)amino]-1H-cyclopenta[a]chrysen-9-yl]] | < 100
13 | C=C(C)[C@@H]1CC[C@]2(NC(=O)COc3cccnc3)CC[C@]3(C)[C@H](CC[C@@H]4[C@@]5(C)CC=C(c6ccc(C(=O)O)cc6)C(C)(C)[C@@H]5CC[C@]43C)[C@@H]12 [Example 121, 4-((1R,3aS,5aR,5bR,7aR,11aS,11bR,13aR,13bR)-5a,5b,8,8,11a-pentamethyl-1-(prop-1-en-2-yl)-3a-(2-(pyridin-3-yloxy)acetamido)-2,3,3a,4,5,5a,5b,6,7,7a,8,11,11a,11b,12,13,13a,13b-octadecahydro-1H-cyclopenta[a]chrysen-9-yl)benzoic acid] | < 100
14 | C=C(C)[C@@H]1CC[C@]2(NC(=O)CN3CCCCC3)CC[C@]3(C)[C@H](CC[C@@H]4[C@@]5(C)CC=C(c6ccc(C(=O)O)cc6)C(C)(C)[C@@H]5CC[C@]43C)[C@@H]12 [Example 122, 4-((1R,3aS,5aR,5bR,7aR,11aS,11bR,13aR,13bR)-5a,5b,8,8,11a-pentamethyl-3a-(2-(piperidin-1-yl)acetamido)-1-(prop-1-en-2-yl)-2,3,3a,4,5,5a,5b,6,7,7a,8,11,11a,11b,12,13,13a,13b-octadecahydro-1H-cyclopenta[a]chrysen-9-yl)benzoic acid] | < 100
15 | C=C(C)[C@@H]1CC[C@]2(NC(=O)CN(C(C)C)C(C)C)CC[C@]3(C)[C@H](CC[C@@H]4[C@@]5(C)CC=C(c6ccc(C(=O)O)cc6)C(C)(C)[C@@H]5CC[C@]43C)[C@@H]12 [Example 123, 4-((1R,3aS,5aR,5bR,7aR,11aS,11bR,13aR,13bR)-3a-(2-(diisopropylamino)acetamido)-5a,5b,8,8,11a-pentamethyl-1-(prop-1-en-2-yl)-2,3,3a,4,5,5a,5b,6,7,7a,8,11,11a,11b,12,13,13a,13b-octadecahydro-1H-cyclopenta[a]chrysen-9-yl)benzoic acid] | < 100
